The results in this text go back to ChEMBL document CHEMBL1201862, “PubChem BioAssay data set” (2004).

Some test systems named below: COLO 205; OVCAR-5; LOX IMVI; CAKI-1; RXF 393; SNB-19; SF-268; HT-29; A549; NCI-H460; UACC-62; OVCAR-3; MOLT-4; EKVX; 786-0; HCT-15; SNB-75; UO-31; NCI/ADR-RES.
Common to all, as to assay: NCI tumour cell line growth inhibition, 48 h

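Interpolation was linear, between the two tested concentrations surrounding the appropriate level; five concentrations were tested over 48 hours in 96-well plates. The concentration for 50% growth inhibition is given as GI50.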 The source made the active and inactive calls. No stated cut-off is given here; in the data, active = GI50 up to about 1.1 µM and inactive = higher.

With `Cc1cc(=O)oc2cc(OCc3nc4ccccc4c(=O)[nH]3)ccc12`, the GI50 in the assay with COLO 205, with OVCAR-5, in the assay on LOX IMVI, with CAKI-1, in the assay on RXF 393 and in the assay with SNB-19 was > 100 µM (inactive) each time. Besides, the GI50 in the assay on SF-268, in the assay with HT-29, with A549, in the assay on NCI-H460, in the assay on UACC-62 and in the assay on OVCAR-3 was > 100 µM (inactive) in each case. In addition, the GI50 in the assay with MOLT-4 is > 100 µM (inactive); in the assay on EKVX, > 100 µM (inactive); in the assay on 786-0, > 100 µM (inactive); with HCT-15 it was more than 100 µM; in the assay on SNB-75, > 100 µM (inactive).
For `CCC12C[N+]3([O-])CCc4c([nH]c5ccccc45)C(C(=O)OC)(c4cc5c(cc4OC)N(C)C4C(O)(C(=O)OC)C(OC(C)=O)C6(CC)C=CCN7CCC54C76)CC(C3)C1O2` (stereo not given), the GI50 was 0.423 µM (active) in the assay on COLO 205; 3.94 µM (inactive) in the assay with OVCAR-5; 1.09 µM (active) with LOX IMVI; 5.93 µM (inactive) with CAKI-1; 3.17 µM (inactive) in the assay on UO-31; 0.693 µM (active) with RXF 393. The GI50 with SNB-19 is 0.597 µM (active); in the assay with SF-268 it was 0.675 µM (active); with HT-29, 0.342 µM (active); in the assay with A549, 0.826 µM (active); in the assay on NCI-H460, 0.424 µM (active); with UACC-62 it was 0.323 µM (active). Also, the GI50 was 0.337 µM (active) with OVCAR-3; 0.406 µM (active) with MOLT-4; 0.467 µM (active) in the assay with EKVX; 0.461 µM (active) with 786-0; 4.47 µM with HCT-15; 0.242 µM (active) with SNB-75.
For `O=C(OCc1ccccc1)n1cccc1`, the GI50 in the assay with COLO 205 is > 100 µM (inactive); in the assay on OVCAR-5 it was > 100 µM (inactive); with LOX IMVI it was > 100 µM (inactive); in the assay on CAKI-1, > 100 µM (inactive); with UO-31, 46.3 µM (inactive); in the assay on RXF 393, > 100 µM (inactive). Also, the GI50 is > 100 µM (inactive) with SNB-19; > 100 µM (inactive) in the assay with SF-268; 65.9 µM (inactive) in the assay on HT-29; > 100 µM (inactive) with A549; > 100 µM (inactive) in the assay on NCI-H460; > 100 µM (inactive) with UACC-62. In addition, the GI50 in the assay with OVCAR-3 is > 100 µM (inactive); with MOLT-4, 76.9 µM (inactive); with EKVX it was > 100 µM (inactive); in the assay on 786-0, > 100 µM (inactive); in the assay with SNB-75, 31.8 µM (inactive).
Turning to `CN(C)C(=S)Nc1nnc(NC23CC4CC(CC(C4)C2)C3)s1.[O-][Cl+3]([O-])([O-])O`, the GI50 was 19.8 µM (inactive) in the assay with COLO 205; 10 µM (inactive) in the assay with OVCAR-5; 17.5 µM (inactive) in the assay with LOX IMVI; 20.1 µM (inactive) with CAKI-1; 12.4 µM (inactive) in the assay on UO-31; 17.1 µM (inactive) in the assay on RXF 393. For the same compound, the GI50 was 18.3 µM (inactive) in the assay with SNB-19; 16.4 µM (inactive) with SF-268; 5.81 µM (inactive) with HT-29; 12.4 µM (inactive) in the assay on A549; 12.6 µM (inactive) with NCI-H460; 16.5 µM (inactive) in the assay with UACC-62. Also, the GI50 is 18.7 µM (inactive) with OVCAR-3; 14.8 µM (inactive) with MOLT-4; 23 µM (inactive) with EKVX; 16.6 µM (inactive) with 786-0; 13.6 µM with HCT-15; 0.1 µM (active) in the assay with SNB-75.
For `CNC(=O)c1nn[nH]c1Sc1c([N+](=O)[O-])ncn1C`, the GI50 in the assay with COLO 205, in the assay on NCI/ADR-RES, in the assay on OVCAR-5, with LOX IMVI, in the assay on CAKI-1 and in the assay on UO-31 was > 100 µM (inactive) each time. For the same compound, the GI50 in the assay on RXF 393, in the assay with SNB-19, with SF-268, in the assay on HT-29, in the assay with A549 and in the assay with NCI-H460 was > 100 µM (inactive) throughout. Further, the GI50 was > 100 µM (inactive) in the assay on UACC-62; > 100 µM (inactive) with OVCAR-3; > 100 µM (inactive) in the assay with MOLT-4; > 100 µM (inactive) in the assay on EKVX; > 100 µM (inactive) with 786-0; more than 100 µM in the assay with HCT-15.
`Cc1cc(Cl)ccc1NC(=O)C(=O)C(C(=O)c1ccc2ccccc2c1)C1OC(=O)c2ccccc21` (stereo not given): the GI50 with COLO 205 was 13.2 µM (inactive); in the assay on OVCAR-5 it was 18.6 µM (inactive); in the assay with LOX IMVI it was 13.2 µM (inactive); with CAKI-1, 11.6 µM (inactive); in the assay on UO-31, 12.9 µM (inactive); in the assay on RXF 393, 1.83 µM (inactive). The GI50 with SNB-19 was 3.87 µM (inactive); with SF-268, 4.08 µM (inactive); in the assay on HT-29, 28.4 µM (inactive); in the assay on A549, 21.3 µM (inactive); in the assay with NCI-H460 it was 6.93 µM (inactive); with UACC-62 it was 8.67 µM (inactive). In addition, the GI50 is 9.98 µM (inactive) in the assay with OVCAR-3; 29.2 µM (inactive) in the assay on EKVX; 8.91 µM (inactive) in the assay with 786-0; 18.7 µM in the assay on HCT-15; 10.1 µM (inactive) in the assay on SNB-75.
In the case of `O=c1[nH]c(=O)n(C2OC(COP(=O)(O)OP(=O)(O)OC3OC(CO)C(O)C(O)C3O)C(O)C2O)cc1F` (stereo not given), the GI50 is 0.0984 µM (active) in the assay with COLO 205; 0.908 µM (active) in the assay with OVCAR-5; 0.0314 µM (active) in the assay with LOX IMVI; 0.109 µM (active) in the assay with CAKI-1; 0.04 µM (active) with UO-31; 0.0522 µM (active) in the assay on RXF 393. Besides, the GI50 in the assay on SNB-19 was 0.156 µM (active); in the assay with SF-268, 0.0475 µM (active); with HT-29, 0.0582 µM (active); in the assay with A549 it was 0.0149 µM (active); in the assay with NCI-H460, < 0.014 µM (active); in the assay with UACC-62, 0.307 µM (active). In addition, the GI50 in the assay on OVCAR-3 is 0.552 µM (active); with MOLT-4, 0.0522 µM (active); in the assay on EKVX it was 1.12 µM (inactive); in the assay on 786-0, 0.0526 µM (active); in the assay on HCT-15, 0.0384 µM; in the assay with SNB-75, 1.64 µM (inactive).
In the case of `CC1=C2C(=CC(C)(C)C2O)C(=O)C(C)(O)C12CC2` (stereo not given), the GI50 in the assay with COLO 205 was 0.0138 µM (active); with OVCAR-5, 0.0128 µM (active); in the assay on LOX IMVI, 0.00478 µM (active); with CAKI-1 it was 0.00552 µM (active); with UO-31, 0.0127 µM (active); in the assay on RXF 393 it was 0.00752 µM (active). Further, the GI50 in the assay with SNB-19 was 0.019 µM (active); with SF-268, 0.00658 µM (active); in the assay on HT-29, 0.0028 µM (active); in the assay on A549, 0.0135 µM (active); with NCI-H460 it was 0.0018 µM (active); in the assay on UACC-62, 0.0116 µM (active). The GI50 in the assay with OVCAR-3 is 0.0112 µM (active); in the assay with MOLT-4 it was 0.00253 µM (active); with EKVX, 0.0356 µM (active); in the assay on 786-0, 0.00759 µM (active); in the assay with HCT-15 it was 0.00393 µM; with SNB-75, 0.0123 µM (active).
As to `COC(=O)CCC12CCC(=O)C1[C@@H](C(=O)OC)C[C@H]2C(=O)OC` (stereo not given in full), the GI50 in the assay on COLO 205, in the assay with OVCAR-5, in the assay with LOX IMVI, in the assay with CAKI-1, in the assay with UO-31 and in the assay with RXF 393 was > 100 µM (inactive) in each case. The GI50 in the assay with SNB-19, in the assay on SF-268, in the assay with HT-29, in the assay with A549, in the assay on NCI-H460 and with UACC-62 was > 100 µM (inactive) each time. Moreover, the GI50 is > 100 µM (inactive) with OVCAR-3; > 100 µM (inactive) in the assay on MOLT-4; > 100 µM (inactive) in the assay on EKVX; > 100 µM (inactive) in the assay on 786-0; more than 100 µM with HCT-15; > 100 µM (inactive) in the assay on SNB-75.
On to `O=C(Nc1ccccc1)OCc1nc2c([nH]1)C(=O)C=CC2=O`, for which the GI50 was 1.9 µM (inactive) in the assay on COLO 205; 22.2 µM (inactive) in the assay on OVCAR-5; 16.1 µM (inactive) in the assay on LOX IMVI; 0.35 µM (active) in the assay with CAKI-1; 16.8 µM (inactive) in the assay with UO-31; 10.8 µM (inactive) in the assay on RXF 393. The GI50 in the assay on SNB-19 was 13.8 µM (inactive); with HT-29, 27.5 µM (inactive); in the assay with A549, 16.4 µM (inactive); with NCI-H460 it was 19.8 µM (inactive); in the assay with UACC-62, 19.7 µM (inactive); in the assay with OVCAR-3 it was 16.7 µM (inactive). For the same compound, the GI50 with MOLT-4 was 2.32 µM (inactive); with EKVX, 20.7 µM (inactive); with 786-0, 18.3 µM (inactive); in the assay with HCT-15, 18.2 µM; with SNB-75 it was 19.3 µM (inactive).
`COc1ccc2nc3ccccc3c(NCCCCN(CCCl)CCCl)c2c1`: the GI50 was 0.368 µM (active) with COLO 205; 0.448 µM (active) in the assay on NCI/ADR-RES; 0.507 µM (active) with OVCAR-5; 0.0596 µM (active) with LOX IMVI; 0.0253 µM (active) in the assay on CAKI-1; 0.443 µM (active) in the assay on UO-31. For the same compound, the GI50 with RXF 393 is 0.0212 µM (active); in the assay with SNB-19, 0.783 µM (active); in the assay with SF-268 it was 0.0735 µM (active); in the assay on HT-29, 0.043 µM (active); in the assay on A549, 0.162 µM (active); in the assay with NCI-H460, < 0.0352 µM (active). The GI50 in the assay on UACC-62 is 0.245 µM (active); in the assay on OVCAR-3, 0.118 µM (active); in the assay on MOLT-4 it was 0.01 µM (active); in the assay with EKVX, 0.535 µM (active); in the assay with 786-0 it was 0.0436 µM (active); in the assay with HCT-15 it was 0.244 µM. Further, the GI50 in the assay with SNB-75 is 0.197 µM (active).
